SMILES strings stand for the structures.

This series addresses ATP-dependent translocase ABCB1 (Homo sapiens, UniProt P08183). As to the kind of experiment: TP_TRANSPORTER: transepithelial transport in MDR1-expressing LLC-PK1 cells. Conditions: pig. The format is functional, cell-based.

Chain of ATP-dependent translocase ABCB1 (P08183 whole entry): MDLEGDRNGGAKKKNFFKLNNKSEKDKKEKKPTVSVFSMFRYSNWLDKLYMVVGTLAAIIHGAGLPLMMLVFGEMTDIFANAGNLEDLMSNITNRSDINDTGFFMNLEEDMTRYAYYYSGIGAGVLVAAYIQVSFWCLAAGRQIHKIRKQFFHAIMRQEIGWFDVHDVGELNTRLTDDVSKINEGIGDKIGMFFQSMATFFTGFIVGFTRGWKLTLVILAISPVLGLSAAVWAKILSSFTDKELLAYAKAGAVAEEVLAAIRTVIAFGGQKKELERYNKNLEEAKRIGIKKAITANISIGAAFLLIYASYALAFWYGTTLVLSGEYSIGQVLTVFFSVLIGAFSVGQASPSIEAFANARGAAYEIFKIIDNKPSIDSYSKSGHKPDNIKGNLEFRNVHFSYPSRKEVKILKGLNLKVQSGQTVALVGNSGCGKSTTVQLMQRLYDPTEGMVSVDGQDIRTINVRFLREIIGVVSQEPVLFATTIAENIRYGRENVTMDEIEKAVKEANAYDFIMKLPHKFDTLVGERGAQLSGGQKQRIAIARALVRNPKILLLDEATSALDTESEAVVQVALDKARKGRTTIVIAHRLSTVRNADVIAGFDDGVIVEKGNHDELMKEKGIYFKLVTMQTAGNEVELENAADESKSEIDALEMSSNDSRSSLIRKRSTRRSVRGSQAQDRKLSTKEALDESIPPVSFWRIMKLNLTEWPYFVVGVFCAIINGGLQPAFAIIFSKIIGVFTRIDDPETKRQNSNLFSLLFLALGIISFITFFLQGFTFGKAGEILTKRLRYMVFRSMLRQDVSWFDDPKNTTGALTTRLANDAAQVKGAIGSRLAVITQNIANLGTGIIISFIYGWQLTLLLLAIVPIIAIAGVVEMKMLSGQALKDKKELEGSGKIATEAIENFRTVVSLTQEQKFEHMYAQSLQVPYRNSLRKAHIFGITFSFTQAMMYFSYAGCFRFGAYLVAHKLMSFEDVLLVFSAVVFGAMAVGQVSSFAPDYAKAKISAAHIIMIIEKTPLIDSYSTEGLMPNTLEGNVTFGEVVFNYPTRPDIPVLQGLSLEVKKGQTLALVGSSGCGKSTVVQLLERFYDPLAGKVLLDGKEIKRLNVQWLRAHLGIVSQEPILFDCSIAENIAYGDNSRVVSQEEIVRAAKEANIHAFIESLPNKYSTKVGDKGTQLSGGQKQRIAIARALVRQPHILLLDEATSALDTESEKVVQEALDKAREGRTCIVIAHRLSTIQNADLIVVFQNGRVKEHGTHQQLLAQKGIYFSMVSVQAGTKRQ

On to `CC[C@]1(O)C[C@@H]2CN(CCc3c([nH]c4ccccc34)[C@@](C(=O)OC)(c3cc4c(cc3OC)N(C)[C@H]3[C@@](O)(C(=O)OC)[C@H](OC(C)=O)[C@]5(CC)C=CCN6CC[C@]43[C@@H]65)C2)C1` [VINBLASTINE], for which the Activity result is “substrate [+]”. As to `CCn1nc(Cc2ccccc2)cc1C1CCN(Cc2ccc(C3(N(C)[C@@H](C(=O)O)C(C)C)CCCC3)cc2F)CC1`, the Activity entry was “substrate [+]”.

(Values after ChEMBL document CHEMBL2074038 (J Pharmacol Exp Ther, 2003).)
